The subject of one experiment is sFd-35-ER. The experiment is described as follows: Complementation of E. coli EW11 growth by sFd-35-ER with 4-HT and other estrogen receptor modulators. It counts as cell-based, Escherichia coli. As to the method: Growth assay. For all growth experiments, E. coli EW11 were freshly transformed with two plasmids, one encoding the e-donor and acceptor pair (FNR and SIR) and the other encoding either a native Fd, a C42A mutant of Ml Fd that is unable to coordinate a 2Fe-2S cluster, or an engineered Fd. Starter cultures were inoculated using single colonies obtained by selecting for colonies containing both plasmids on LB-agar plates. These starter cultures were grown in deep-well 96-well plates for 18 hours at 37° C. in 1 mL of a non-selective modified M9 medium (M9c), which contained sodium phosphate, dibasic (6.8 g/L), sodium phosphate, monobasic (3 g/L), sodium chloride (0.5 g/L), ammonium chloride (1 g/L), calcium chloride (0.1 mM), magnesium sulfate (10 mM), ferric citrate (24 mg/L), p-aminobenzoic acid (2 mg/L), inositol (20 mg/L), adenine (5 mg/L), uracil (20 mg/L), tryptophan (40 mg/L), tyrosine (1.2 mg/L), and the remaining 18 amino acids (80 mg/L each). For auxotroph complementation analysis, starter cultures that had been grown to stationary phase in M9c were diluted ˜1:100 using a 96-well replicator pin into 100 μL of a selective modified M9 medium (M9sa), which is identical to M9c but lacks cysteine and methionine. […] Optical density (OD) measurements were taken every 10 minutes. To select for the Fd and e-donor/acceptor plasmids, all growth steps included chloramphenicol and streptomycin at 34 μg/mL and 100 μg/mL, respectively.
To test whether this domain-insertion strategy can be used to diversify the chemical regulation of sFd-35, the ligand-binding domain (LBD) of the human estrogen receptor (ER) was inserted after residue 35 to create sFd-35-ER (FIG. 26E).
(§1) The activity of sFd-35-ER was evaluated by expressing this protein using an aTc-inducible promoter (FIG. 31B). […] This protein was also expressed as a fusion to RFP (sFd-35-ER-RFP) to evaluate how 4-HT affects protein expression.
To evaluate how these different modulators affect sFd-35-ER ET, sFd-35-ER growth complementation was evaluated in the presence of agonists, antagonists, and an endocrine disruptor (FIG. 32D).

Another experiment concerns sFd-35-ER-RFP. The conditions noted are these: 4-HT in ethanol compared to ethanol alone. As to the method: Fluorescence spectroscopy.
Chain of sFd-35-ER-RFP (P03372 311-547 limits assumed): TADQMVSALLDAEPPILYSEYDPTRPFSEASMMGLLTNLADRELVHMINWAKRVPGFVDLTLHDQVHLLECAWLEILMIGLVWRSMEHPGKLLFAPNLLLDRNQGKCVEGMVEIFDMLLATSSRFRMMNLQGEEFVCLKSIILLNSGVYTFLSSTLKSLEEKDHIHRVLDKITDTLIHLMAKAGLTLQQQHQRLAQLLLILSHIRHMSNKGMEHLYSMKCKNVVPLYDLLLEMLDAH
as §1

The subject of experiment [1] is lysates derived from E. coli EW11 expressing FNR and SIR. In words: Sulfide production assay in cell lysates (sulfidefluor-7 fluorescence). The conditions noted are these: no Fd added. It counts as biochemical, Escherichia coli. As to the method: Cell lysates. Electrocompetent E. coli EW11 were transformed with the plasmid (pSAC01) that constitutively expresses Zea mays FNR and SIR. Cells were grown to stationary phase at 37° C. and 250 rpm in 2×YTPG medium (16 g/L tryptone, 10 g/L yeast extract, 5 g/L NaCl, 3 g/L KH2PO4, 7 g/L K2HPO4, and 18 g/L glucose) containing 100 μg/mL streptomycin. Cells from overnight cultures were diluted 1:100 in fresh 2×YTPG medium containing streptomycin, grown for 2 hours at 37° C. while shaking at 250 rpm until mid-log phase, and then shifted to 30° C. and grown for an additional 4 hours. […] Protein content in lysates was quantified using Bio-Rad Protein Assay Dye Reagent Concentrate (Bio-Rad), using bovine serum albumin (NEB) as a standard.
Sulfide production assay. […] Following NADPH or protein addition, reactions were arrayed in a Corning 96 well plate at room temperature (Cost ar #3603), transferred to an Infinite m1000 Pro plate reader (Tecan), and heated to 37° C. and shaken at 250 rpm with fluorescence readings (λex=495 nm, λem=520 nm) every 15 seconds. […]
SIR activity was monitored in desalted cell lysates using sulfidefluor-7 (Lin et al., 2013), a fluorescent probe for hydrogen sulfide. […]

For experiment [2], the system named is split Fd fused to estrogen receptor.
Chain of split Fd fused to estrogen receptor (P03372 311-547 limits assumed): as above

Chain of sFd-35-ER (P03372 311-547): as the sequence (P03372 311-547 limits assumed) above

Take 4-hydroxytamoxifen [4-HT]: in the experiment on sFd-35-ER, the “4-HT concentration at which growth of sFd-35-ER is enhanced significantly above the C42A mutant” value was at least 6.25 µM; the “Activation of sFd-35-ER ET (growth complementation)” value is “activated”; the “Effect of estrogen receptor modulators on complementation of E. coli EW11 by sFd-35-ER, compared to DMSO alone” value is reported as “significantly enhance growth”. In the experiment on sFd-35-ER (read-out: k1/2 4-HT, complementation of E. coli EW11 by sFd-35-ER), the EC50 amounted to 2110 nM. The “Effect of 4-HT on relative fluorescence of cells expressing sFd-35-ER-RFP” value in the experiment with sFd-35-ER-RFP was “no significant increase in fluorescence”. Also, the “sulfide production rate on adding 4-HT alone” value in experiment [1] is “not enhanced”. Besides, in experiment [2], the “effect of 4-HT addition alone on rate” value is “does not affect rate”. In addition, the “time after chemical addition at which the higher rate of sulfide production is detectable” value in experiment [2] (4-HT added at t=0) is at most 1.5 min.

(Values after US11407792B2, “Regulating electron flow using fragmented proteins” (WILLIAM MARSH RICE UNIVERSITY, priority 2017, dated 2022).)
